Consider 24 compounds from US20220289728A1, “MODULATORS OF TREX1” (Constellation Pharmaceuticals, Inc., priority 2019, published 2022).

Some results are limits rather than exact numbers.

For orientation: IC50 means the concentration that gives 50% inhibition. A higher IC50 goes with a need for much substance. For orientation: EC50 means the concentration that produces a half-maximal response.

The target of experiment [1] is T1, full length human TREX1 (Homo sapiens, UniProt Q9NSU2).
T1 construct: N-terminally His-Tev tagged full length human TREX1; His-TEV (His tag with TEV site) (N); made in house; host or cells: E. coli
T1 sequence (Q9NSU2 1-314): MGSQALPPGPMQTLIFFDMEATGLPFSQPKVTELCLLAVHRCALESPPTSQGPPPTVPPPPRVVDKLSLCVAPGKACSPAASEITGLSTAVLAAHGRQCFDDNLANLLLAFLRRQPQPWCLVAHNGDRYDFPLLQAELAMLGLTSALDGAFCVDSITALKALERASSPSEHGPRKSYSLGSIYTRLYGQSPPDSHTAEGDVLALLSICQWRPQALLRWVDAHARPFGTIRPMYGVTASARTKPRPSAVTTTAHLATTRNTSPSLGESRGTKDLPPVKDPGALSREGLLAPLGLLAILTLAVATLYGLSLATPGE
The experiment in a line: TREX1 Biochemical Assay (fluorescence, dsDNA substrate degradation). Conditions: 150 pM TREX1, 60 nM dsDNA substrate, 25 minutes at room temperature. Here is the method: Degradation of the dsDNA liberates free fluorophore to produce a fluorescent signal. Specifically, 7.5 μL of N-terminally His-Tev tagged full length human TREX1 (expressed in E. coli and purified in house) in reaction buffer (50 mM Tris (pH 7.4), 150 mM NaCl, 2 mM DTT, 0.1 mg/mL BSA, 0.01% (v/v) Tween-20 and 100 mM MgCl2) was added to a 384-well Black ProxiPlate Plus (Perkin Elmer) which already contained compound (150 nL) at varying concentrations as a 10 point dose-response in DMSO. To this was added 7.5 μL of dsDNA substrate (Strand A: 5′ TEX615/GCT AGG CAG 3′; Strand B: 5′ CTG CCT AGC/IAbRQSp (Integrated DNA Technologies)) in reaction buffer. Final concentrations were 150 pM TREX1, 60 nM dsDNA substrate in reaction buffer with 1.0% DMSO (v/v). After 25 minutes at room temperature, reactions were quenched by the addition of 5 μL of stop buffer (same as reaction buffer plus 200 mM EDTA). Final concentrations in the quenched reaction were 112.5 pM TREX1, 45 nM DNA and 50 mM EDTA in a volume of 20 μL. After a 5-minute incubation at room temperature, plates were read in a laser sourced Envision (Perkin-Elmer), measuring fluorescence at 615 nm following excitation w/570 nm light. IC50 values were calculated by comparing the measured fluorescence at 615 nm ratio relative to control wells pre-quenched w/stop buffer (100% inhibition) and no inhibitor (0% inhibition) controls as using non-linear least square four parameter fits and either Genedata or GraphPad Prism (GraphPad Software, Inc.).

In experiment [2] the test system is HCT116 dual cells. The experiment in a line: HCT116 Cell Assay (Lucia luciferase reporter of Type I interferon induction). It counts as cell-based, human. To be noted: pBR322/BstNI DNA transfection, Lucia luciferase at 48 h, relative to 10 uM compound 39. The source says:
HCT116 dual cells (Invivogen, San Diego, Calif., USA) are derived from the human HCT116 colorectal carcinoma cell line. Cells have been selected for the stable integration of SEAP and Luciferase reporter genes, which expression is under the control of 5 tandem response elements for NF-KB/AP1 and STAT1/STAT2, respectively. The cell line was used to monitor Type I interferon induction and subsequent signaling by measuring the activity of the Lucia luciferase secreted in the culture medium.
HCT116 cells were plated in 96-well plate(s) at 40,000 cells/well in 100 uL DMEM supplemented with 10% FBS and 25 mM Hepes (pH 7.2-7.5). After overnight settling, cells were treated with TREX1i for 4 h (maximum DMSO fraction was 0.1%) before 1.25 ug/mL pBR322/BstNI restriction digest (New England Biolabs, Ipswich, Mass., USA) was transfected with Lipofectamine LTX (ThermoFisher, Grand Island, N.Y., USA), according to product manual recommendations. Briefly, Lipofectamine LTX (0.4 uL/well) was diluted in OptiMEM (5 uL/well). pBR322/BstNI (100 ng/well) was diluted in OptiMEM (5 uL/well) before Plus reagent (0.1 uL/100 ng DNA) was added. After 5 min incubation at room temperature, the DNA mixture was mixed dropwise with the diluted Lipofectamine LTX. After an additional 10 min incubation, the transfection mix (10 uL/well) was added to the cells. Cells were maintained at 37° C. for 48 h before monitoring the Lucia Luciferase activity from the cell culture medium. EC50 values were calculated by comparing the measured luminescence relative to 10 uM compound 39 (100% inhibition) and no inhibitor (0% inhibition) controls using non-linear least-squares four parameter fits in either Genedata Screener or GraphPad Prism (GraphPad Software, Inc.).
In general terms: A reporter such as luciferase makes a cellular process visible.

The target of experiment [3] is T2, human TREX2 (residues M44-A279) (Homo sapiens, UniProt Q9BQ50).
T2 construct: human TREX2 (residues M44-A279, expressed in E. coli); His-TEV (His tag with TEV site) (N); made in house; host or cells: E. coli
T2 sequence (Q9BQ50 44-279 isoform Q9BQ50-1): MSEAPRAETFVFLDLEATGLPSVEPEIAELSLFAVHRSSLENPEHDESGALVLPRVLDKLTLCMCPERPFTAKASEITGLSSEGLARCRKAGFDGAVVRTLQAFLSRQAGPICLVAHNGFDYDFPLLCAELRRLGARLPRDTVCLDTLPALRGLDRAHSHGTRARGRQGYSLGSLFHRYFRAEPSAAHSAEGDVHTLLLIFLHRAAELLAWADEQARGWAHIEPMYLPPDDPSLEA
The experiment in a line: TREX2 Biochemical Assay (fluorescence, dsDNA substrate degradation). To be noted: 2.5 nM TREX2, 60 nM dsDNA substrate, 25 minutes at room temperature. Here is the method:
Degradation of the dsDNA liberates free fluorophore to produce a fluorescent signal. Specifically, 7.5 μL of N-terminally His-Tev tagged human TREX2 (residues M44-A279, expressed in E. coli and purified in house) in reaction buffer (50 mM Tris (pH 7.4), 150 mM NaCl, 2 mM DTT, 0.1 mg/mL BSA, 0.01% (v/v) Tween-20 and 100 mM MgCl2) was added to a 384-well Black ProxiPlate Plus (Perkin Elmer) which already contained compound (150 nL) at varying concentrations as a 10 point dose-response in DMSO. To this was added 7.5 μL of dsDNA substrate (Strand A: 5′ TEX615/GCT AGG CAG 3′; Strand B: 5′ CTG CCT AGC/IAbRQSp (IDT)) in reaction buffer. Final concentrations were 2.5 nM TREX2, 60 nM dsDNA substrate in reaction buffer with 1.0% DMSO (v/v). After 25 minutes at room temperature, reactions were quenched by the addition of 5 μL of stop buffer (same as reaction buffer plus 200 mM EDTA). Final concentrations in the quenched reaction mixture were […] TREX2, 45 nM DNA and 50 mM EDTA in a volume of 20 μL. After a 5-minute incubation at room temperature, plates were read in a laser sourced Envision (Perkin-Elmer), measuring fluorescence at 615 nm following excitation w/570 nm light. IC50 values were calculated by comparing the measured fluorescence at 615 nm ratio relative to control wells pre-quenched w/stop buffer (100% inhibition) and no inhibitor (0% inhibition) controls as using non-linear least square four parameter fits and either Genedata or GraphPad Prism (GraphPad Software, Inc.).

Setting [4] is: Homo sapiens, HCT-116, 4 h pre-treatment.

Regarding “2-(dibenzylamino)-5-ethoxy-N-(isoxazol-4-yl)-1-methyl-6-oxo-1,6-dihydropyrimidine-4-carboxamide [Example 1]”, the IC50 in experiment [1] was less than 100 nM; in experiment [3], less than 1000 nM. The EC50 in experiment [2] (4 h pre-treatment) was 1000 to 10000 nM.
For `CN(c1nc(C(=O)Nc2cnoc2)c(O)c(=O)n1C)C(c1ccccc1)c1ccccc1Cl` (single isomer, unassigned) [Example 39], the IC50 in experiment [1] is less than 100 nM; in experiment [3] it was less than 1000 nM. Further, in experiment [2] (setting [4]), the EC50 is less than 1000 nM.
With `CN(c1nc(C(=O)Nc2cnoc2)c(O)c(=O)n1C)C(c1ccccc1)c1ccccc1Cl` (single isomer, unassigned) [Example 40], the IC50 was less than 100 nM in experiment [1] and less than 1000 nM in experiment [3]. Also, the EC50 in experiment [2] (4 h pre-treatment) is less than 1000 nM.
On to `CN(c1nc(C(=O)Nc2cnoc2)c(O)c(=O)n1C)C(c1ccccc1)c1ccccn1` (single isomer, unassigned) [Example 41], for which the concentration for half-maximal inhibition (IC50) was less than 100 nM in experiment [1] and less than 1000 nM in experiment [3]. Further, the EC50 in experiment [2] (setting [4]) is less than 1000 nM.
As to `CN(c1nc(C(=O)Nc2cnoc2)c(O)c(=O)n1C)C(c1ccccc1)c1ccccn1` (single isomer, unassigned) [Example 42], the IC50 in experiment [1] is less than 100 nM; in experiment [3], 1000 to 10000 nM. Also, in experiment [2] (4 h pre-treatment), the concentration for a half-maximal effect (EC50) was 1000 to 10000 nM.
Regarding `Cc1ccc(C(c2ccccc2)N(C)c2nc(C(=O)Nc3cnoc3)c(O)c(=O)n2C)cn1` (single isomer, unassigned) [Example 43], the IC50 is less than 100 nM in experiment [1] and less than 1000 nM in experiment [3]. The EC50 in experiment [2] (setting [4]) lay within 1000 to 10000 nM.
With `Cc1ccc(C(c2ccccc2)N(C)c2nc(C(=O)Nc3cnoc3)c(O)c(=O)n2C)cn1` (single isomer, unassigned) [Example 44], the figures for the half-maximal inhibitory concentration (IC50) in experiment [1] and in experiment [3] were less than 100 nM and less than 1000 nM, respectively. In addition, in experiment [2] (4 h pre-treatment), the EC50 was less than 1000 nM.
Turning to `CN(c1nc(C(=O)Nc2cnoc2)c(O)c(=O)n1C)C(c1ccccc1)C1CCOCC1` (single isomer, unassigned) [Example 45], the IC50 was less than 100 nM in experiment [1] and 1000 to 10000 nM in experiment [3]. The EC50 in experiment [2] (setting [4]) fell in the range of 1000 to 10000 nM.
As to `CN(c1nc(C(=O)Nc2cnoc2)c(O)c(=O)n1C)C(c1ccccc1)C1CCOCC1` (single isomer, unassigned) [Example 46], the IC50 in experiment [1] was less than 100 nM; in experiment [3], 1000 to 10000 nM. Moreover, the EC50 in experiment [2] (4 h pre-treatment) lay within 1000 to 10000 nM.
As for `Cc1ncc(C(c2ccccc2Cl)N(C)c2nc(C(=O)Nc3cnoc3)c(O)c(=O)n2C)cn1` (single isomer, unassigned) [Example 82], the values for the IC50 in experiment [1] and in experiment [3] were more than 10000 nM and more than 100000 nM, respectively.
Turning to `CN(CCc1ccccc1)c1nc(C(=O)Nc2cnoc2)c(O)c(=O)n1C` [Example 3], the IC50 in experiment [1] fell in the range of 100 to 1000 nM; in experiment [3], 10000 to 100000 nM.
Regarding `CN(Cc1ccc(C(F)(F)F)cc1)c1nc(C(=O)Nc2cnoc2)c(O)c(=O)n1C` [Example 12], the IC50 in experiment [1] lay in the range of 100 to 1000 nM; in experiment [3] it was 10000 to 100000 nM.
For `CN(Cc1ccccc1-c1cccc(Cl)c1)c1nc(C(=O)Nc2cnoc2)c(O)c(=O)n1C` [Example 17], in that order: less than 100 nM and 1000 to 10000 nM.
For `CN(Cc1cccnc1-c1cccc(Cl)c1)c1nc(C(=O)Nc2cnoc2)c(O)c(=O)n1C` [Example 20], the IC50 in experiment [1] was 100 to 1000 nM; in experiment [3], 1000 to 10000 nM.
For the compound `CN(Cc1cnn(C)c1)c1nc(C(=O)Nc2cnoc2)c(O)c(=O)n1C` [Example 33], the IC50 is 100 to 1000 nM in experiment [1] and 10000 to 100000 nM in experiment [3].
On to `CN(Cc1cncnc1)c1nc(C(=O)Nc2cnoc2)c(O)c(=O)n1C` [Example 34], for which the IC50 in experiment [1] fell in the range of 100 to 1000 nM; in experiment [3], 10000 to 100000 nM.
With `CN(Cc1ccncc1)c1nc(C(=O)Nc2cnoc2)c(O)c(=O)n1C` [Example 37], the half-maximal inhibitory concentration (IC50) in experiment [1] was in the range of 100 to 1000 nM; in experiment [3] it was 10000 to 100000 nM.
For `Cc1csc(CN(C)c2nc(C(=O)Nc3cnoc3)c(O)c(=O)n2C)n1` [Example 38] the same measures were 100 to 1000 nM and 1000 to 10000 nM.
Consider `CN1CCC(C(c2ccccc2)N(C)c2nc(C(=O)Nc3cnoc3)c(O)c(=O)n2C)CC1` (stereo not drawn) [Example 49], for which the IC50 lay in the range of 100 to 1000 nM in experiment [1] and 10000 to 100000 nM in experiment [3].
On to `CN(c1nc(C(=O)Nc2cnoc2)c(O)c(=O)n1C)C1CCCCC1` [Example 72], for which the IC50 in experiment [1] lay in the range of 100 to 1000 nM; in experiment [3] it was 1000 to 10000 nM.
As to `CC(=O)N1CCC(N(C)c2nc(C(=O)Nc3cnoc3)c(O)c(=O)n2C)CC1` [Example 73], the results for the IC50 in experiment [1] and in experiment [3] were 100 to 1000 nM and 10000 to 100000 nM, respectively.
For `CN(C)C(=O)c1ccccc1CN(C)c1nc(C(=O)Nc2cnoc2)c(O)c(=O)n1C` [Example 75], in that order: 100 to 1000 nM and 10000 to 100000 nM.
In the case of `CN(C)C(=O)c1ccc(CN(C)c2nc(C(=O)Nc3cnoc3)c(O)c(=O)n2C)cc1` [Example 76], the figures for the IC50 in experiment [1] and in experiment [3] were 100 to 1000 nM and 10000 to 100000 nM, respectively.
On to `CN(C)C(=O)c1cccc(CN(C)c2nc(C(=O)Nc3cnoc3)c(O)c(=O)n2C)c1` [Example 77], for which the IC50 in experiment [1] lay in the range of 100 to 1000 nM; in experiment [3] it was 10000 to 100000 nM.
